In this test the target is T1, maltose-trehalose converting enzyme derived from Pimelobacter sp. R48 (Pimelobacter sp., UniProt P72235).
T1 construct: The culture obtained in Experiment 1 was centrifuged to obtain an about 0.5 kg wet cells; endogenous in cells; host or cells: Pimelobacter sp; R48 (FERM BP-4315), enzyme purified from the disrupted wild-type cells
T1 sequence (P72235 1-573): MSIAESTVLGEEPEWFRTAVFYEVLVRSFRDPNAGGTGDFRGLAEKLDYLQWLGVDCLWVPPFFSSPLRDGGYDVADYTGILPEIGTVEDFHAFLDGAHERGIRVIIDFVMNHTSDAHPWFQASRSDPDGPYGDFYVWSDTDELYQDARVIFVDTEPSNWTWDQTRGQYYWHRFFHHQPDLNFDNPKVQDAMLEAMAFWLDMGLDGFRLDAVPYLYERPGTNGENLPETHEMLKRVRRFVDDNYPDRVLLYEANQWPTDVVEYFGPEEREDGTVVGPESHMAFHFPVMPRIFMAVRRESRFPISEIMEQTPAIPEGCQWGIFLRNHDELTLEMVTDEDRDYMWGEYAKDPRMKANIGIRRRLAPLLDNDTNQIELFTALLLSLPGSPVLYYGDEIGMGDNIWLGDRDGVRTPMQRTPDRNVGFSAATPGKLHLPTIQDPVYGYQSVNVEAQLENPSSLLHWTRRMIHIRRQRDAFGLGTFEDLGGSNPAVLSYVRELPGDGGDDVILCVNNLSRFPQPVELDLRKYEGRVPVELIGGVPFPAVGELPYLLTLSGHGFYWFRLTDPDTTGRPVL
In words: Inhibition of enzyme activity. Type of test: biochemical. As to conditions: one mM Cu^++ or Hg^++, 50 mM Tris-HCl buffer. How it is done: The activity of the present maltose-trehalose converting enzyme is assayed as follows: One ml of an enzyme solution is added to one ml of 20 w/v % maltose as a substrate in 10 mM phosphate buffer (pH 7.0), and the mixture solution is incubated at 25° C., 35° C. or 60° C. for 60 min, followed by the heating the solution at 100° C. for 10 min to suspend the enzymatic reaction. To the resultant reaction mixture is precisely diluted by 11-fold with 50 mM phosphate buffer (pH 7.5), and 0.4 ml of the diluted solution is admixed with 0.1 ml of a trehalase solution having one unit/ml of trehalase. The resultant solution is incubated at 45° C. for 120 min, followed by determining the amount of glucose by the glucose-oxidase method. As a control, by using trehalase and an enzyme solution, which were preheated at 100° C. for 10 min to inactivate the enzyme, the activity of the enzyme solution is assayed similarly as above. With the above assay, the content of trehalose, formed by the present maltose-trehalose converting enzyme, is determined based on the amount of glucose formed, and one unit activity of the enzyme is defined as the amount of enzyme which forms one μmole of trehalose per minute. As regards to the reaction temperature, it is set to 25° C. for the enzyme of a microorganism of the genus Pimelobacter; 35° C. for that of the genus Pseudomonas; and 60° C. for that of the genus Thermus.
Effects of temperature and pH on the activity of the present enzyme were studied in accordance with the method as used for assaying the enzyme activity. […] The thermal stability of the enzyme was determined by incubating it in 50 mM phosphate buffers (pH 7.0) in test tubes at different temperatures for 60 min, cooling the test tubes with cold water, and assaying the residual enzyme activity in each buffer. The pH stability of the enzyme was determined by incubating it in 50 mM phosphate buffers having different pHs at 20° C. for 60 min, adjusting the buffers to pH 7.0, and assaying the residual enzyme activity in each buffer.

“Also recorded” adds a separate entry of the source. Where a name gives a salt, the structure may show the parent alone.

`[Cu+2]` [Cu^++]: the Inhibition of activity entry is “inhibited; also recorded: inhibitory”.
Take `[Hg+2]` [Hg^++]: the Inhibition of activity result is reported as “inhibited; also recorded: inhibitory”.
Under `NC(CO)(CO)CO` [Tris-HCl buffer] stands “inhibited; also recorded: inhibitory”.

The values are drawn from patent US5736380A, “Maltose-trehalose converting enzyme, and preparation and uses thereof” (Kabushiki Kaisha Hayashibara Seibutsu Kagaku Kenkyujo, priority 1993, dated 1998).
